Measured values from paper PMC6979384, “Characterization of the plant homeodomain (PHD) reader family for their histone tail interactions” (Epigenetics & Chromatin, 2020).

Tests used:
Assay in all cases: Histone peptide microarray
Type in all cases: binding, human
ING3 = conditions: total n = 4; for Array Heatmap signal, ING3: sheet "Array Heatmap", GST-tagged reader, histone peptide array
Outline: (§1)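 Steps: express and purify GST-tagged PHD reader; incubate 0.5 μM protein on a peptide microarray (293 histone peptides, single or combined PTMs) following an optimized protocol; average signal across 4 replicates.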

SP140L = conditions: total n = 4; for Array Heatmap signal, SP140L: sheet "Array Heatmap", GST-tagged reader, histone peptide array
Outline: as §1

MORC3 (CW) = conditions: total n = 4; for Array Heatmap signal, MORC3 (CW): sheet "Array Heatmap", GST-tagged reader, histone peptide array
Outline: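 Each reader, produced as a GST fusion and purified, was tested at 0.5 μM on synthetic histone peptides (293 in total) carrying single or combinatorial marks. Intensities averaged over four replicates.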

PHF21A = conditions: total n = 4; for Array Heatmap signal, PHF21A: sheet "Array Heatmap", GST-tagged reader, histone peptide array
Outline: as §1

KDM7A = conditions: total n = 4; for Array Heatmap signal, KDM7A: sheet "Array Heatmap", GST-tagged reader, histone peptide array
Outline: as §1

ING4 = conditions: total n = 4; for Array Heatmap signal, ING4: sheet "Array Heatmap", GST-tagged reader, histone peptide array
Outline: as §1

DIDO1 = conditions: total n = 4; for Array Heatmap signal, DIDO1: sheet "Array Heatmap", GST-tagged reader, histone peptide array
Outline: as §1

KDM4C (TTP) = conditions: total n = 4; for Array Heatmap signal, KDM4C (TTP): sheet "Array Heatmap", GST-tagged reader, histone peptide array
Outline: as §1

CHD5 (PPCC) = conditions: total n = 4; for Array Heatmap signal, CHD5 (PPCC): sheet "Array Heatmap", GST-tagged reader, histone peptide array
Outline: as §1

PHF13 = conditions: total n = 4; for Array Heatmap signal, PHF13: sheet "Array Heatmap", GST-tagged reader, histone peptide array
Outline: as §1

BAZ2B = conditions: total n = 4; for Array Heatmap signal, BAZ2B: sheet "Array Heatmap", GST-tagged reader, histone peptide array
Outline: as §1

CHD4 (PPCC) = conditions: total n = 4; for Array Heatmap signal, CHD4 (PPCC): sheet "Array Heatmap", GST-tagged reader, histone peptide array
Outline: as §1

KDM5A (3) = conditions: total n = 4; for Array Heatmap signal, KDM5A (3): sheet "Array Heatmap", GST-tagged reader, histone peptide array
Outline: as §1

AIRE (PP) = conditions: total n = 4; for Array Heatmap signal, AIRE (PP): sheet "Array Heatmap", GST-tagged reader, histone peptide array
Outline: as §1

RAG2 = conditions: total n = 4; for Array Heatmap signal, RAG2: sheet "Array Heatmap", GST-tagged reader, histone peptide array
Outline: as §1

CHD5 (PCC) = conditions: total n = 4; for Array Heatmap signal, CHD5 (PCC): sheet "Array Heatmap", GST-tagged reader, histone peptide array
Outline: as §1

TRIM66 (PB) = conditions: total n = 4; for Array Heatmap signal, TRIM66 (PB): sheet "Array Heatmap", GST-tagged reader, histone peptide array
Outline: as §1

KDM5B (1) = conditions: total n = 4; for Array Heatmap signal, KDM5B (1): sheet "Array Heatmap", GST-tagged reader, histone peptide array
Outline: as §1

BPTF (PB) = conditions: total n = 4; for Array Heatmap signal, BPTF (PB): sheet "Array Heatmap", GST-tagged reader, histone peptide array
Outline: as §1

KDM5B (3) = conditions: total n = 4; for Array Heatmap signal, KDM5B (3): sheet "Array Heatmap", GST-tagged reader, histone peptide array
Outline: as §1

ING2 = conditions: total n = 4; for Array Heatmap signal, ING2: sheet "Array Heatmap", GST-tagged reader, histone peptide array
Outline: as §1

PHRF1 (RP) = conditions: total n = 4; for Array Heatmap signal, PHRF1 (RP): sheet "Array Heatmap", GST-tagged reader, histone peptide array
Outline: as §1

PHF23 = conditions: total n = 4; for Array Heatmap signal, PHF23: sheet "Array Heatmap", GST-tagged reader, histone peptide array
Outline: as §1

KDM5A (1) = conditions: total n = 4; for Array Heatmap signal, KDM5A (1): sheet "Array Heatmap", GST-tagged reader, histone peptide array
Outline: as §1

ING5 = conditions: total n = 4; for Array Heatmap signal, ING5: sheet "Array Heatmap", GST-tagged reader, histone peptide array
Outline: as §1

MLL5 = conditions: total n = 4; for Array Heatmap signal, MLL5: sheet "Array Heatmap", GST-tagged reader, histone peptide array
Outline: as §1

ING1 = conditions: total n = 4; for Array Heatmap signal, ING1: sheet "Array Heatmap", GST-tagged reader, histone peptide array
Outline: as §1

TAF3 = conditions: total n = 4; for Array Heatmap signal, TAF3: sheet "Array Heatmap", GST-tagged reader, histone peptide array
Outline: as §1

PHF2 = conditions: total n = 4; for Array Heatmap signal, PHF2: sheet "Array Heatmap", GST-tagged reader, histone peptide array
Outline: as §1

PHF8 = conditions: total n = 4; for Array Heatmap signal, PHF8: sheet "Array Heatmap", GST-tagged reader, histone peptide array
Outline: as §1

DPF2 (PPC2W2) = conditions: total n = 4; for Array Heatmap signal, DPF2 (PPC2W2): sheet "Array Heatmap", GST-tagged reader, histone peptide array
Outline: as §1

H3K9ac + K14ac: H3 1-20
Array Heatmap signal (histone peptide microarray) (ING3; GST-tagged ING3, sheet Array Heatmap, each array performed twice): 0.4549
Array Heatmap signal (histone peptide microarray) (SP140L; GST-tagged SP140L, sheet Array Heatmap, each array performed twice): 0.3541
Array Heatmap signal (histone peptide microarray) (MORC3 (CW); GST-tagged MORC3 (CW = CW-type Zn-finger), sheet Array Heatmap, each array performed twice): 0.5873
Array Heatmap signal (histone peptide microarray) (PHF21A; GST-tagged PHF21A, sheet Array Heatmap, each array performed twice): 0.5392
Array Heatmap signal (histone peptide microarray) (KDM7A; GST-tagged KDM7A, sheet Array Heatmap, each array performed twice): 0.4362
Array Heatmap signal (histone peptide microarray) (ING4; GST-tagged ING4, sheet Array Heatmap, each array performed twice): 0.4734
Array Heatmap signal (histone peptide microarray) (DIDO1; GST-tagged DIDO1, sheet Array Heatmap, each array performed twice): 0.6252
Array Heatmap signal (histone peptide microarray) (KDM4C (TTP); GST-tagged KDM4C (TTP = Tandem Tudor domain + PHD), sheet Array Heatmap, each array performed twice): 0.5191
Array Heatmap signal (histone peptide microarray) (CHD5 (PPCC); GST-tagged CHD5 (PPCC = Dual PHD + Dual Chromodomain), sheet Array Heatmap, each array performed twice): 0.6001
Array Heatmap signal (histone peptide microarray) (PHF13; GST-tagged PHF13, sheet Array Heatmap, each array performed twice): 0.6041
Array Heatmap signal (histone peptide microarray) (BAZ2B; GST-tagged BAZ2B, sheet Array Heatmap, each array performed twice): 1
Array Heatmap signal (histone peptide microarray) (CHD4 (PPCC); GST-tagged CHD4 (PPCC = Dual PHD + Dual Chromodomain), sheet Array Heatmap, each array performed twice): 0.673
Array Heatmap signal (histone peptide microarray) (KDM5A (3); GST-tagged KDM5A (3), sheet Array Heatmap, each array performed twice): 0.5178
Array Heatmap signal (histone peptide microarray) (AIRE (PP); GST-tagged AIRE (PP), sheet Array Heatmap, each array performed twice): 0.699
Array Heatmap signal (histone peptide microarray) (RAG2; GST-tagged RAG2, sheet Array Heatmap, each array performed twice): 0.2862
Array Heatmap signal (histone peptide microarray) (CHD5 (PCC); GST-tagged CHD5 (PCC = PHD + Dual Chromodomain), sheet Array Heatmap, each array performed twice): 0.9958
Array Heatmap signal (histone peptide microarray) (TRIM66 (PB); GST-tagged TRIM66 (PB = PHD + Bromodomain), sheet Array Heatmap, each array performed twice): 0.9112
Array Heatmap signal (histone peptide microarray) (KDM5B (1); GST-tagged KDM5B (1), sheet Array Heatmap, each array performed twice): 0.9142
Array Heatmap signal (histone peptide microarray) (BPTF (PB); GST-tagged BPTF (PB = PHD + Bromodomain), sheet Array Heatmap, each array performed twice): 0.3651
Array Heatmap signal (histone peptide microarray) (KDM5B (3); GST-tagged KDM5B (3), sheet Array Heatmap, each array performed twice): 0.6203
Array Heatmap signal (histone peptide microarray) (ING2; GST-tagged ING2, sheet Array Heatmap, each array performed twice): 0.5932
Array Heatmap signal (histone peptide microarray) (PHRF1 (RP); GST-tagged PHRF1 (RP), sheet Array Heatmap, each array performed twice): 1
Array Heatmap signal (histone peptide microarray) (PHF23; GST-tagged PHF23, sheet Array Heatmap, each array performed twice): 0.5024
Array Heatmap signal (histone peptide microarray) (KDM5A (1); GST-tagged KDM5A (1), sheet Array Heatmap, each array performed twice): 0.5569
Array Heatmap signal (histone peptide microarray) (ING5; GST-tagged ING5, sheet Array Heatmap, each array performed twice): 0.3504
Array Heatmap signal (histone peptide microarray) (MLL5; GST-tagged MLL5, sheet Array Heatmap, each array performed twice): 0.5394
Array Heatmap signal (histone peptide microarray) (ING1; GST-tagged ING1, sheet Array Heatmap, each array performed twice): 0.5104
Array Heatmap signal (histone peptide microarray) (TAF3; GST-tagged TAF3, sheet Array Heatmap, each array performed twice): 0.3149
Array Heatmap signal (histone peptide microarray) (PHF2; GST-tagged PHF2, sheet Array Heatmap, each array performed twice): 0.4774
Array Heatmap signal (histone peptide microarray) (PHF8; GST-tagged PHF8, sheet Array Heatmap, each array performed twice): 0.3842
Array Heatmap signal (histone peptide microarray) (DPF2 (PPC2W2); GST-tagged DPF2 (PPC2W2 = Dual PHD + C2W2-type Zn-finger), sheet Array Heatmap, each array performed twice): 1

H3K9ac + S10p: H3 1-20
Array Heatmap signal, ING3 (ING3): 0.4478
Array Heatmap signal, SP140L (SP140L): 0.3709
Array Heatmap signal, MORC3 (CW) (MORC3 (CW)): 0.3729
Array Heatmap signal, PHF21A (PHF21A): 0.4788
Array Heatmap signal, KDM7A (KDM7A): 0.5012
Array Heatmap signal, ING4 (ING4): 0.4766
Array Heatmap signal, DIDO1 (DIDO1): 0.6052
Array Heatmap signal, KDM4C (TTP) (KDM4C (TTP)): 0.5441
Array Heatmap signal, CHD5 (PPCC) (CHD5 (PPCC)): 0.5687
Array Heatmap signal, PHF13 (PHF13): 0.5949
Array Heatmap signal, BAZ2B (BAZ2B): 0.4929
Array Heatmap signal, CHD4 (PPCC) (CHD4 (PPCC)): 0.5496
Array Heatmap signal, KDM5A (3) (KDM5A (3)): 0.462
Array Heatmap signal, AIRE (PP) (AIRE (PP)): 0.6057
Array Heatmap signal, RAG2 (RAG2): 0.2427
Array Heatmap signal, CHD5 (PCC) (CHD5 (PCC)): 0.846
Array Heatmap signal, TRIM66 (PB) (TRIM66 (PB)): 0.5818
Array Heatmap signal, KDM5B (1) (KDM5B (1)): 0.6761
Array Heatmap signal, BPTF (PB) (BPTF (PB)): 0.3364
Array Heatmap signal, KDM5B (3) (KDM5B (3)): 0.53
Array Heatmap signal, ING2 (ING2): 0.597
Array Heatmap signal, PHRF1 (RP) (PHRF1 (RP)): 0.4935
Array Heatmap signal, PHF23 (PHF23): 0.5104
Array Heatmap signal, KDM5A (1) (KDM5A (1)): 0.5046
Array Heatmap signal, ING5 (ING5): 0.3597
Array Heatmap signal, MLL5 (MLL5): 0.5353
Array Heatmap signal, ING1 (ING1): 0.4982
Array Heatmap signal, TAF3 (TAF3): 0.2808
Array Heatmap signal, PHF2 (PHF2): 0.4212
Array Heatmap signal, PHF8 (PHF8): 0.3696
Array Heatmap signal, DPF2 (PPC2W2) (DPF2 (PPC2W2)): 0.6808

H3K9me1: H3 1-20 [Peptide H3K9me1]
Array Heatmap signal, ING3 (ING3): 0.4876
Array Heatmap signal, SP140L (SP140L): 0.3427
Array Heatmap signal, MORC3 (CW) (MORC3 (CW)): 0.4491
Array Heatmap signal, PHF21A (PHF21A): 0.4979
Array Heatmap signal, KDM7A (KDM7A): 0.3983
Array Heatmap signal, ING4 (ING4): 0.4656
Array Heatmap signal, DIDO1 (DIDO1): 0.6415
Array Heatmap signal, KDM4C (TTP) (KDM4C (TTP)): 0.5061
Array Heatmap signal, CHD5 (PPCC) (CHD5 (PPCC)): 0.5585
Array Heatmap signal, PHF13 (PHF13): 0.594
Array Heatmap signal, BAZ2B (BAZ2B): 0.4746
Array Heatmap signal, CHD4 (PPCC) (CHD4 (PPCC)): 0.6171
Array Heatmap signal, KDM5A (3) (KDM5A (3)): 0.4739
Array Heatmap signal, AIRE (PP) (AIRE (PP)): 0.5694
Array Heatmap signal, RAG2 (RAG2): 0.2526
Array Heatmap signal, CHD5 (PCC) (CHD5 (PCC)): 0.8558
Array Heatmap signal, TRIM66 (PB) (TRIM66 (PB)): 0.6422
Array Heatmap signal, KDM5B (1) (KDM5B (1)): 0.68
Array Heatmap signal, BPTF (PB) (BPTF (PB)): 0.3459
Array Heatmap signal, KDM5B (3) (KDM5B (3)): 0.4949
Array Heatmap signal, ING2 (ING2): 0.5783
Array Heatmap signal, PHRF1 (RP) (PHRF1 (RP)): 0.6479
Array Heatmap signal, PHF23 (PHF23): 0.5057
Array Heatmap signal, KDM5A (1) (KDM5A (1)): 0.4835
Array Heatmap signal, ING5 (ING5): 0.3437
Array Heatmap signal, MLL5 (MLL5): 0.5407
Array Heatmap signal, ING1 (ING1): 0.4934
Array Heatmap signal, TAF3 (TAF3): 0.2561
Array Heatmap signal, PHF2 (PHF2): 0.4569
Array Heatmap signal, PHF8 (PHF8): 0.3494
Array Heatmap signal, DPF2 (PPC2W2) (DPF2 (PPC2W2)): 0.6871
